# Laboratory results as given in the supplement of paper PMC10307832.
# Columns and labels:
# Assay in all cases: relative viability (nuclei count vs DMSO), 5 days (fraction); higher = more cells survive
# TPCA-1 + AZD7762 = compound: C1=CC(=CC=C1C2=CC(=C(S2)NC(=O)N)C(=O)N)F [TPCA-1] + NC(=O)Nc1cc(-c2cccc(F)c2)sc1C(=O)N[C@H]1CCCNC1 [AZD7762] (partner 0.2 µM)
# In short: (§1)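 Dosing by pin tool came one day after lung cancer cell lines were seeded in 1536-well plates, using either one drug or a fixed anchor-drug dose plus five library-drug doses (not always all listed) in √10 steps. After 5 days, nuclei were counted on 4× images. Relative viability is treated-well nuclei count divided by vehicle-well nuclei count, and values are medians of duplicate plates.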
# Lestaurtinib + Foretinib = compound: C[C@]12O[C@H](C[C@]1(O)CO)n1c3ccccc3c3c4c(c5c6ccccc6n2c5c31)CNC4=O [Lestaurtinib] + COc1cc2c(Oc3ccc(NC(=O)C4(C(=O)Nc5ccc(F)cc5)CC4)cc3F)ccnc2cc1OCCCN1CCOCC1 [Foretinib] (partner 0.25 µM)
# In short: as §1
# Lestaurtinib + Dasatinib = compound: C[C@]12O[C@H](C[C@]1(O)CO)n1c3ccccc3c3c4c(c5c6ccccc6n2c5c31)CNC4=O [Lestaurtinib] + Cc1nc(Nc2ncc(C(=O)Nc3c(C)cccc3Cl)s2)cc(N2CCN(CCO)CC2)n1 [Dasatinib] (partner 0.075 µM)
# In short: as §1
# [1] = compound: C1/C(=C\C2=CC=CS2)/C(=O)/C(=C/C3=CC=CS3)/C1 + Nc1nc2[nH]cc(CCc3ccc(C(=O)N[C@@H](CCC(=O)O)C(=O)O)cc3)c2c(=O)[nH]1 [Pemetrexed] (partner 0.2 µM)
# In short: as §1
Cell Line,relative viability (TPCA-1 + AZD7762; first compound 0.04 µM),relative viability (TPCA-1 + AZD7762; first compound 0.1265 µM),relative viability (TPCA-1 + AZD7762; first compound 0.4 µM),relative viability (TPCA-1 + AZD7762; first compound 1.265 µM),relative viability (TPCA-1 + AZD7762; first compound 4 µM),relative viability (Lestaurtinib + Foretinib; first compound 0.005 µM),relative viability (Lestaurtinib + Foretinib; first compound 0.01581 µM),relative viability (Lestaurtinib + Foretinib; first compound 0.05 µM),relative viability (Lestaurtinib + Foretinib; first compound 0.1581 µM),relative viability (Lestaurtinib + Foretinib; first compound 0.5 µM),relative viability (Lestaurtinib + Dasatinib; first compound 0.005 µM),relative viability (Lestaurtinib + Dasatinib; first compound 0.01581 µM),relative viability (Lestaurtinib + Dasatinib; first compound 0.05 µM),relative viability (Lestaurtinib + Dasatinib; first compound 0.1581 µM),relative viability (Lestaurtinib + Dasatinib; first compound 0.5 µM),relative viability ([1]; first compound 0.2 µM),relative viability ([1]; first compound 0.6325 µM),relative viability ([1]; first compound 2 µM),relative viability ([1]; first compound 6.325 µM),relative viability ([1]; first compound 20 µM)
NCI-H727,0.596,0.68,0.497,0.701,0.698,1.05,0.991,1.05,0.756,0.33,0.402,0.285,0.459,0.542,0.231,,,,,
HARA,0.317,0.504,0.39,0.471,0.349,0.958,0.856,0.838,0.827,0.126,0.27,0.3,0.21,0.261,0.238,0.249,0.254,0.228,0.222,0.241
NCI-H2228,,,,,,0.885,0.896,0.523,0.379,0.254,0.494,0.546,0.497,0.22,0.18,0.369,0.333,0.4,0.33,0.326
LCLC-97TM1,0.231,0.237,0.223,0.164,0.217,0.925,1.08,0.556,0.462,0.238,0.841,0.853,0.629,0.753,0.191,0.175,0.178,0.167,0.165,0.187
LC-2-ad,0.883,0.803,0.837,0.83,0.221,0.946,0.903,0.817,0.647,0.324,0.618,0.831,0.258,0.281,0.256,0.272,0.298,0.268,0.25,0.287
SK-LU-1,,,,,,0.763,0.707,0.4,0.38,0.205,0.155,0.168,0.146,0.161,0.126,1.12,1.03,0.942,0.829,1.02
EKVX,0.739,,0.813,0.669,0.677,0.681,0.752,0.75,0.925,0.656,0.477,0.735,0.562,0.576,0.373,0.394,0.347,0.453,,0.389
HCC-827,0.209,0.209,0.227,0.224,0.181,1.02,1.02,0.835,0.803,0.202,0.428,0.323,0.256,0.318,0.246,0.262,0.226,0.243,0.248,0.284
NCI-H650,1.03,0.895,1.1,0.541,0.906,1.04,1.17,0.839,0.689,0.584,0.405,0.397,0.301,0.315,0.232,0.813,1.02,0.948,0.941,0.858
CAL-12T,0.702,0.583,0.667,0.565,0.555,1.25,1.22,1.03,1.13,0.696,0.447,0.413,0.306,0.307,0.153,1.28,1.25,1.24,1.16,1.07
NCI-H2342,0.504,0.469,0.403,0.349,0.404,1.17,1.06,1.08,1.08,0.922,0.328,0.314,0.264,0.313,0.259,0.781,0.764,0.838,0.718,0.747
SW 900,,,0.685,0.631,0.586,0.719,0.891,1.17,0.868,0.793,0.739,0.702,0.445,0.57,0.32,0.481,0.525,0.49,0.399,0.482
IA-LM,,,,,,1.37,1.4,1.53,1.22,0.59,,,,,,,,,,
EPLC-272H,0.368,0.26,0.314,0.26,0.276,0.542,0.538,0.282,0.325,0.126,0.282,0.301,0.169,0.187,0.125,0.351,0.468,0.334,0.301,0.373
A-427,0.881,0.801,0.89,0.811,0.624,1.03,1.04,0.668,0.4,0.154,0.846,0.771,0.454,0.24,0.116,1.02,1.04,0.89,0.943,0.941
NCI-H647,0.618,0.447,0.629,0.451,0.327,1.41,1.15,0.705,0.478,0.16,0.278,0.147,0.0914,0.0755,0.0624,0.19,0.158,0.204,0.158,0.213
NCI-H1975,0.717,0.682,0.763,0.923,0.522,1.09,0.99,0.927,0.731,0.538,0.479,0.396,0.373,0.328,0.257,0.321,0.298,0.32,0.269,0.301
NCI-H358,0.467,0.406,0.73,0.501,0.312,0.621,0.436,0.358,0.201,0.108,0.15,0.129,0.162,0.105,0.115,0.213,0.207,0.171,0.191,0.177
PC-3 [JPC-3],0.844,0.802,0.85,0.823,0.655,1.01,1.1,0.938,0.902,0.558,1.01,1.02,0.843,0.857,0.483,,1.15,0.982,1.04,1.26
NCI-H1792,0.623,0.62,0.596,0.483,0.363,,,,,,1.04,1.33,0.65,0.835,0.616,0.931,0.875,0.882,0.74,0.767
NCI-H596,1.21,1.04,1.19,1.44,1.02,0.724,0.946,0.82,1.1,0.671,0.669,0.6,0.678,0.694,0.564,0.5,0.477,0.527,0.526,0.505

Cell Line,relative viability (TPCA-1 + AZD7762; first compound 0.04 µM),relative viability (TPCA-1 + AZD7762; first compound 0.1265 µM),relative viability (TPCA-1 + AZD7762; first compound 0.4 µM),relative viability (TPCA-1 + AZD7762; first compound 1.265 µM),relative viability (TPCA-1 + AZD7762; first compound 4 µM),relative viability (Lestaurtinib + Foretinib; first compound 0.005 µM),relative viability (Lestaurtinib + Foretinib; first compound 0.01581 µM),relative viability (Lestaurtinib + Foretinib; first compound 0.05 µM),relative viability (Lestaurtinib + Foretinib; first compound 0.1581 µM),relative viability (Lestaurtinib + Foretinib; first compound 0.5 µM),relative viability (Lestaurtinib + Dasatinib; first compound 0.005 µM),relative viability (Lestaurtinib + Dasatinib; first compound 0.01581 µM),relative viability (Lestaurtinib + Dasatinib; first compound 0.05 µM),relative viability (Lestaurtinib + Dasatinib; first compound 0.1581 µM),relative viability (Lestaurtinib + Dasatinib; first compound 0.5 µM),relative viability ([1]; first compound 0.2 µM),relative viability ([1]; first compound 0.6325 µM),relative viability ([1]; first compound 2 µM),relative viability ([1]; first compound 6.325 µM),relative viability ([1]; first compound 20 µM)
COR-L 105,,,,,,1.29,1.19,1.27,1.18,0.669,0.32,0.32,0.245,0.258,0.145,1.37,1.04,1.26,1.06,1.13
NCI-H2023,,,,,,1.02,0.758,0.843,1.01,0.164,0.674,0.586,0.422,0.473,0.159,0.239,0.305,0.263,0.175,0.218
EBC-1,,,,,,0.109,0.105,0.114,0.11,0.112,,,,,,,,,,
ABC-1,,0.606,0.935,0.836,0.945,1.04,1.33,0.991,0.962,0.204,0.547,0.648,0.482,0.451,0.218,,,,,
NCI-H520,,,,,,0.713,0.992,0.698,0.342,0.228,0.209,0.203,0.164,0.169,0.159,0.644,0.623,0.727,,0.65
NCI-H1650,,,,,,1.03,1.24,1.37,1.26,0.694,0.263,0.345,0.391,0.387,0.144,0.35,0.392,0.42,0.373,0.367
SK-MES-1,,,,,,0.906,0.866,0.599,0.33,0.334,0.396,0.333,0.426,0.206,0.159,0.972,0.959,0.949,0.752,0.988
NCI-H1563,,,,,,0.977,0.96,0.978,0.97,0.991,0.487,0.447,0.499,0.409,0.362,0.73,0.801,0.912,0.798,0.763
NCI-H1648,0.807,0.682,0.684,0.806,0.668,,,,,,,,,,,0.859,0.718,0.79,0.609,0.569
NCI-H1299,,,,,,1.07,1.14,0.68,0.832,0.671,,,,,,,,,,
A549,,,,,,1.09,1.07,0.579,0.301,0.169,,,,,,,,,,
NCI-H1623,,,,,,0.872,0.812,0.818,0.671,0.695,0.493,0.576,0.584,0.513,0.497,,,,,
NCI-H1703,0.132,0.118,0.136,,0.122,0.322,0.305,0.27,0.315,0.252,,,,,,,,,,
NCI-H661,,,,,,1.02,0.935,1.02,0.933,0.421,0.99,0.953,0.851,0.81,0.319,0.914,1.01,0.949,0.806,0.959
NCI-H2009,,,,,,1.24,1.3,1.17,1.09,0.751,0.257,0.227,0.2,0.211,0.118,1.05,1.01,1,,0.977
HCC-44,1,1.01,0.982,1.08,1.02,,,,,,,,,,,0.64,0.688,0.613,0.55,0.673
NCI-H522,0.898,0.904,0.857,0.853,0.894,,,,,,0.798,0.807,0.934,0.821,0.493,1.04,0.916,1.17,0.988,0.957
Calu-6,,,,,,0.868,0.979,0.499,0.482,0.207,,,,,,,,,,
COR-L23,,,,,,1.03,0.908,0.8,0.825,0.391,0.539,0.699,0.296,0.455,0.121,0.2,0.193,0.196,0.182,0.199
SW 1573,,,,,,0.895,0.889,0.826,0.668,0.518,0.605,0.454,0.246,0.162,0.0823,0.774,0.845,0.869,0.546,0.856
